Consider 2 compounds from US20120245108A1, “METHOD OF MODULATING COMPLEMENT FACTOR B (CFB) EXPRESSION IN CELLS” (KAOHSIUNG MEDICAL UNIVERSITY, priority 2011, published 2012).

The test system of one test is phospho-STAT3(Tyr705). Description: Phospho-STAT3(Tyr705) immunoblotting in ARPE-19 cells. The class given is cell-based, human. Here is the method:
(§1) ARPE-19 (CRL-2302, human retinal pigment epithelial cells, American Type Culture Collection, Manassas, Va.) cells were cultured in 1:1 mixture of Dulbecco's modified Eagle's medium and HAM F-12 nutrient mixture supplemented with 10% fetal bovine serum at 37° C., 5% CO2, and 90% relative humidity. Confluent cells (90% confluence) were used throughout the experiments. Culture materials were obtained from Gibco-BRL (Rockville, Md.). Tannic acid, AG490 and all other reagents were obtained from Sigma Chemical Co. (St. Louis, Mo.).
(§2) The source of UVB radiation was performed using the EL series of UV lamp (UVP Inc., San Gabriel, Calif., USA). One hundred percent energy emission was at wavelength 302 nm with a radiation intensity of 1.04 mW/cm^2 in a lamp and a target distance of 15 cm was measured by a UVX Digital Radiometer (UVP Inc.).
Total cell lysates were resolved by 10% sodium dodecyl sulfate-polyacryl amide gel electrophoresis, transferred to membranes and blocked, and then probed phospho-STAT3(Tyr705) and STAT3 (Cell Signaling Technology, Danvers, Mass.) antibodies. To control for protein loading, all blots were probed with GAPDH (Millipore, Billerica, Mass.) as well. The bands were detected using the enhanced chemiluminescence system (Millipore, Billerica, Mass.).
A general note: In western blotting, separated proteins are transferred to a membrane and probed.

A further test concerns JAK/STAT signaling. Conditions: Samardzija et al. 2006; cited from earlier work.
Another test deals with CFB mRNA. Description: CFB mRNA expression in ARPE-19 cells by real-time RT-PCR. It counts as cell-based, human. As to conditions: for UVB-induced CFB mRNA expression: 10 mJ/cm^2 UVB, 24 h, ARPE-19 cells, TA 25 μM, AG490 40 μM in 0.2% DMSO, normalized to GAPDH. Here is the method: as §1, §2
The total RNA was isolated from ARPE-19 cells and cells exposed to UVB radiation (5-15 mJ/cm^2) for 24 hr using TRIzol Reagent (invitrogen). One μg of total RNA was subject to reverse transcriptase RT-PCR by using RT-PCR kit (Applied Biosystems). The primers used for detecting mRNA for IL-6 were 5′-CCTGCAAG ACCATCGACATG-3′ (forward, SEQ ID NO. 1) and 5′-[…]-3′ (reverse, SEQ ID NO. 2); CFB were 5′-[…]-3′ (forward, SEQ ID NO. 3) and 5′-[…]-3 (reverse, SEQ ID NO. 4); STAT3 were 5′-[…]-3′ (forward, SEQ ID NO. 5) and 5′-[…]-3′ (reverse, SEQ ID NO. 6); JAK2 were 5′-GCTCAGTGGCGGCATGAT-3′ (forward, SEQ ID NO. 7) and 5′-[…]-3′ (reverse, SEQ ID NO. 8); GAPDH were 5′-AACAGCGACACCCATCCTC-3′ (forward, SEQ ID NO. 9) and 5′-[…]-3′ (reverse, SEQ ID NO. 10). Real-time PCR was performed in a Gene Amp 7900® Sequence Detection System SDS (Applied Biosystems, Foster City, Calif., USA) using SYBR® Green PCR Master Mix Applied Biosystems. The relative gene expression is the comparative CT method. Each sample was normalized on the basis of its GAPDH content according to the formula 2^−ΔΔCT.
(Real-time PCR tracks product formation cycle by cycle.)

Another test has as its system IL-6. Description: IL-6 protein production in ARPE-19 cell culture supernatants by ELISA. The class given is cell-based, human. As to conditions: TA 25 μM, 10 mJ/cm^2 UVB, 24 hours, ARPE-19 cells. Here is the method: as §1, §2
ARPE-19 cells were plated about 200,000 cells in a 3-cm dish and cultured for 18-24 hours. Cells were exposed to UVB radiation for 24 hours, 1 ml aliquots of cell culture supernatants were drawn off and frozen at −80° C. ELISAs were carried out with the OptEIA human IL-6 ELISA kit (BD Pharmingen) according to the manufacturer's instructions. […] Freshly diluted rIL-6 which is useful as a standard control was used to generate a standard curve on each plate analyzed. Plates were read at 450 nm using a spectrophotometric plate reader. […]
(In general: ELISA stands for enzyme-linked immunosorbent assay.)

For the compound `N#C/C(=C/c1ccc(O)c(O)c1)C(=O)NCc1ccccc1` [AG490, reference compound], the “STAT3 phosphorylation on Tyr705” value in the test on phospho-STAT3(Tyr705) (AG490 40 μM, data not shown) was “inhibit”. For the same compound, in the test on JAK/STAT signaling, the JAK/STAT signaling entry is recorded as “inhibit” and the “retinal degeneration after bright light exposure” value is on record as “prevent”. The “UVB-induced CFB mRNA expression” value in the test on CFB mRNA is “partly attenuated”.
Take `O=C(OC[C@H]1O[C@@H](OC(=O)c2cc(O)c(O)c(OC(=O)c3cc(O)c(O)c(O)c3)c2)[C@H](OC(=O)c2cc(O)c(O)c(OC(=O)c3cc(O)c(O)c(O)c3)c2)[C@@H](OC(=O)c2cc(O)c(O)c(OC(=O)c3cc(O)c(O)c(O)c3)c2)[C@@H]1OC(=O)c1cc(O)c(O)c(OC(=O)c2cc(O)c(O)c(O)c2)c1)c1cc(O)c(O)c(OC(=O)c2cc(O)c(O)c(O)c2)c1` [TA, Tannic acid]: the “UVB-induced STAT3 phosphorylation on Tyr705” value in the test with phospho-STAT3(Tyr705) (TA 25 μM, UVB, 24 hours, ARPE-19 (RPE) cells) is listed as “substantially attenuated”. For the same compound, in the test with phospho-STAT3(Tyr705) (without UV radiation), the “STAT3 phosphorylation without UV radiation” value is reported as “reduce”. Also, the “UVB-induced CFB mRNA expression” value with CFB mRNA was “attenuate”. Moreover, the “CFB expression without UV radiation” value in the test on CFB mRNA (without UV radiation) is “reduce”. Besides, the “attenuation of UVB-induced IL-6 protein production” value in the test on IL-6 is recorded as “approximately 40%”.
